Data from patent US11395821B2, “Treatment of EGFR-driven cancer with fewer side effects” (G1 Therapeutics, Inc., priority 2017, dated 2022).
Entries after “also recorded” stand apart in the source; their conditions may differ.

Legend:
[1] = test system: EGFR^ex19del/T790M PDX NSCLC tumor fragments (TM00219, Jackson Labs); test: Example 4: Compound IV +/- osimertinib in EGFR ex19del/T790M PDX model; type: in vivo, NSG mice; settings: once daily oral gavage 28 days
Excerpt: (§1) The x-axis is days from initiation measured in time and the y-axis is mean tumor volume measured in mm^3.
The x-axis is days from initiation measured in time and the y-axis is median tumor volume measured in mm^3.
After 28 days tumors continued to be measured until they reached tumor burden (>2000 mm^3).

[2] = test system: H1975 (EGFR^L858R/T790M NSCLC Model); test: Example 2: Compound IV + erlotinib in H1975 tumor bearing mice; type: in vivo; settings: Compound IV 50 or 100 mg/kg in combination with erlotinib 70 mg/kg, daily, 18 days
Protocol: (§2) The x-axis is days of treatment measured in time and the y-axis is tumor volume measured in mm^3.
(§3) Compound IV in combination with the EGFR-TKI erlotinib was tested in an EGFR^L858R/T790M NSCLC model. The combination of Compound IV in dosages of 50 mg/kg and 100 mg/kg+erlotinib was tested and compared to treatment regimens consisting of only Compound IV (in 50 mg/kg dose or a 100 mg/kg) or erlotinib (70 mg/kg). H1975 (EGFR^L858R/T790M NSCLC Model) tumor bearing mice were treated daily. Tumors were measured twice a week until vehicle treated mice tumors reached about 1000 mm^3 (18 days). Data is plotted to compare tumor growth in each cohort during the 18 days of treatment.

[3] = Study G1T38-01: safety and tolerability in healthy subjects; type: in vivo, Humans
Excerpt: Effects on hematologic parameters were not observed due to the limited duration of dosing.

[4] = test system: H1975 (EGFR^L858R/T790M NSCLC Model); test: Example 1: Compound IV + afatinib in H1975 tumor bearing mice; type: in vivo; settings: Compound IV 50 or 100 mg/kg in combination with afatinib 20 mg/kg, daily, 18 days
Protocol: as §2
as §3, with “afatinib” for “erlotinib”, “mg/kg+afatinib” for “mg/kg+erlotinib”, “afatinib (20” for “erlotinib (70”

[5] = test system: EGFR^ex20ins PDX NSCLC tumor fragments (LU0387, CrownBio); test: Example 5: Compound IV +/- osimertinib in EGFR ex20ins PDX model; type: in vivo, BALB/c nude mice; settings: once daily oral gavage
Excerpt: as §1
Tumors continued to be measured until they reached tumor burden (>3000 mm3).

With `CC(C)N1CCN(c2ccc(Nc3ncc4cc5n(c4n3)C3(CCCCC3)CNC5=O)nc2)CC1` [Compound IV] the “tumor growth vs vehicle, combination” value ([1]; Compound IV 100 mg/kg + osimertinib 2.5 mg/kg) was “tumor stasis during dosing that was sustained post treatment; also recorded: delays tumor growth”, the “tumor growth vs vehicle, single agent” value ([1]; Compound IV 100 mg/kg or osimertinib 2.5 mg/kg alone) was “modest tumor growth inhibition” and the “erlotinib resistance (tumor volume)” value [2] was “reversed erlotinib resistance; also recorded: reverses EGFR-TKI acquired resistance”. For the same molecule, the “effect of fed conditions on gastrointestinal tolerability” value ([3]; dosing under fed conditions) was “appeared to improve gastrointestinal tolerability”, the “effects on hematologic parameters” value ([3]; limited duration of dosing) was “not observed” and the tolerability ([3]; single or twice daily oral doses, 3 to 600 mg/day, healthy male and female subjects) was “well to moderately tolerated”. The “most common moderate intensity TEAEs” value ([3]; subjects with moderate tolerability) was “gastrointestinal AEs were the most common moderate intensity treatment-emergent AEs”, the “afatinib efficacy and time to resistance (tumor volume)” value [4] was “increased the afatinib efficacy and extended the time to resistance; also recorded: increases EGFR-TKI efficacy and extends time to resistance” and the “decrease of tumor volume, combination vs Compound IV alone and afatinib alone” value [4] was “more effective at decreasing tumor volume”. The “tumor growth vs vehicle, combination” value ([5]; Compound IV 100 mg/kg + osimertinib 10 mg/kg) was “significant tumor growth delay; also recorded: delays tumor growth” and the “tumor growth vs vehicle, single agent” value ([5]; 17 days, Compound IV 100 mg/kg or osimertinib 10 mg/kg alone) was “did not cause an effect”.
